# Tests used:
# [1] = system: phospho-p38 expression in sputum macrophages; assay: Immunocytochemistry of sputum macrophages: phospho-p38; format: in vivo, human; conditions: study 2; PH-797804 30 mg oral or PF-03715455 20 mg inhaled; Post-LPS
# Description: (§1) Frozen cytospins created from sputum cells were analysed for phosphorylated-Heat Shock Protein 27 (phospho-HSP27) and phospho-p38 expression in sputum macrophages. The methods are fully described in the online supplement. Phospho-p38 and phospho-HSP27 immunoreactivity is presented as percentage of the macrophage population. All analyses were carried out by blinded observers.
# Frozen cytospins created from sputum cells were thawed and the cells were fixed in 4% paraformaldehyde in PBS for 10 minutes at room temperature, followed by blocking in normal serum. Cytospins were then incubated with the following primary antibodies overnight at 4 °C; anti-human phosphorylated-p38 (phospho-p38) MAPK (Thr180/Tyr182) antibody (Cat No. 9211S, New England Biolabs, Herts, UK) or phosphorylated-Heat Shock Protein 27 (phospho-HSP27 [Cat No. S82, New England Biolabs]) diluted 1:50 in 1.5% normal serum with 0.5% Triton X-100 (Sigma-Aldrich). Endogenous peroxidase was quenched by incubating cytospins in 3% H2O2 in methanol (0.3% for phospho-p38). Phospho-p38 and phospho-HSP27 were detected using biotinylated goat anti-rabbit IgG secondary antibody (Vector Labs, Peterborough, UK) in conjunction with an avidin–biotin peroxidase complex (Vector Labs) and 3,3’-diaminobenzidine (DAB) substrate. Cell nuclei were counterstained with Gill’s haematoxylin (Sigma-Aldrich). Omission of primary antibody in staining protocol was used as a negative control.
# (§2) Digital micrographs were obtained through the use of a Nikon Eclipse 80i microscope (Nikon UK Ltd, Surrey, UK) equipped with a QImaging digital camera (Media cybernetics, Marlow, UK) and ImageProPlus 5.1 software (Media Cybernetics). Sputum macrophages (determined by morphology) were analysed for phospho-p38 and phospho-HSP27 expression following single label immunohistochemistry utilising the ImagePro Plus image analysis software; at least 200 macrophages per cytospin were counted. Phospho-p38 and phospho-HSP27 immunoreactivity was presented as percentage of the macrophage population. All analysis was carried out by blinded observers.
# [2] = healthy subjects; ref previous phase 1 studies (unpublished); cited from earlier work
# [3] = system: phospho-HSP27 expression in sputum macrophages; assay: Immunocytochemistry of sputum macrophages: phospho-HSP27; format: in vivo, human; conditions: study 2; PH-797804 30 mg oral or PF-03715455 20 mg inhaled; Post-LPS
# Description: as §1
# Frozen cytospins created from sputum cells were thawed and the cells were fixed in 4% paraformaldehyde in PBS for 10 minutes at room temperature, followed by blocking in normal serum. […] Phospho-p38 and phospho-HSP27 were detected using biotinylated goat anti-rabbit IgG secondary antibody (Vector Labs, Peterborough, UK) in conjunction with an avidin–biotin peroxidase complex (Vector Labs) and 3,3’-diaminobenzidine (DAB) substrate. […]
# as §2, with “Phospho-p38 and phospho-HSP27 immunoreactivity was presented as percentage of the macrophage population. All analysis was carried out by blinded observers.” left out
# [4] = Plasma pharmacokinetics (sparse sampling); format: in vivo, human; conditions: human, plasma, po, 30 mg, PH-797804 30 mg oral; for concentration at 23 h: 23 h post dose; for concentration at 30.5 h: 30.5 h post dose
# [5] = system: IL-6, MPO, MCP-1 and MIP-1β in sputum supernatant; assay: Inhaled LPS challenge: sputum supernatant protein biomarkers; format: in vivo, human; conditions: for Sputum IL-6, mean / Sputum MCP-1, mean / Sputum MIP-1β, mean / Sputum MPO, mean: post LPS
# Description: A baseline sputum sample was obtained within 14 days of the first study period when subjects were administered a single dose of randomised treatment. […] Induced sputum was obtained 6 h later to coincide with the maximal inflammatory response caused by inhaled LPS. A washout period of at least 21 days followed, with subjects returning after 14 days of the washout period for induced sputum sampling; this was performed to ensure that the total cell count, total neutrophil count and total macrophage count were within the range of −80 to +100 % of the screening values. […] If these criteria were not met, then up to two repeat visits to obtain sputum were allowed, with at least 4 days between sputum inductions. The next randomised treatment day was scheduled at least 4 days after sputum induction and was identical to the first treatment day.
# Sputum was induced using normal saline after inhalation of salbutamol, and processing was performed using dithiothreitol (DTT) as previously described [20]. The supernatants were stored at −80 °C for later analysis, while cells were used to produce cytoslides (Cytospin 4, Shandon, Runcorn, UK) for differential cell counting and immunocytochemistry. Cytoslides for differential cell count were fixed in methanol (Sigma) and then stained with Rapi-Diff® (GCC Diagnostics, Sandyhurst, UK) or Wright-modified Giemsa (Accustatin WG-18, Sigma-Aldrich); a minimum of 400 non-squamous cells were counted and differential cell counts obtained as percentage of total non-squamous cells. Cell viability was analysed by trypan blue exclusion. Cytoslides with % squamous cell counts <20 % were deemed to be of acceptable quality for differential cell counting. Unfixed cytoslides were wrapped in aluminium foil and stored frozen at −80 °C for immunocytochemistry.
# In studies 1 and 2, sputum supernatants were analysed for interleukin 6 (IL-6), myeloperoxidase (MPO), monocyte chemotactic protein-1 (MCP-1) and macrophage inflammatory protein-1β (MIP-1 β), using electrochemiluminescent immunoassays (ECLIA) or enzyme-linked immunosorbent assays (ELISA); the manufacturers are listed in the online supplement. In study 3, sputum supernatants were analysed for IL-6, MCP-1 and MIP-1β by the same method.
# [6] = system: sputum neutrophils and macrophages after inhaled LPS; assay: Inhaled LPS challenge in healthy subjects: induced sputum cell counts; format: in vivo, human; conditions: for Mean (SD) sputum neutrophil percentage: 6 h post-LPS
# Description: Three randomised, double-blind, placebo-controlled crossover studies were performed; the effects of a single dose of active treatment was investigated in all three studies. […] Studies 2 and 3 were conducted at two UK centres: Quintiles Drug Research Unit, London, and Medicines Evaluation Unit, Manchester. […] The studies were performed during the following time periods: study 1, Sep 2006–Mar 2008; study 2, Jan 2011–Dec 2011; and study 3, Jul 2011–Jan 2012. The design of all three studies was similar. A baseline sputum sample was obtained within 14 days of the first study period when subjects were administered a single dose of randomised treatment. […] Induced sputum was obtained 6 h later to coincide with the maximal inflammatory response caused by inhaled LPS. […] This criterion was used to ensure that sputum cell counts after LPS challenge had returned to close to the original baseline values; this was done to reduce data variability between treatment periods. […] For each challenge, a 1-mg vial of lyophilised LPS (Escherichia coli serotype O26:B6, ref. L-2654, Sigma-Aldrich, Dorset, UK) was diluted with 4 mL of 0.9 % w/v sodium chloride. The reconstitution produced a 0.25 mg/mL solution, of which 2 mL was placed into the pre-calibrated dosimeter pot and administered via five inhalations from a breath-activated dosimeter (Mefar dosimeter MB3, Brescia, Italy). Each inhalation was performed over 3 s with a 6-s breath hold. […] Sputum was induced using normal saline after inhalation of salbutamol, and processing was performed using dithiothreitol (DTT) as previously described. The supernatants were stored at −80 °C for later analysis, while cells were used to produce cytoslides (Cytospin 4, Shandon, Runcorn, UK) for differential cell counting and immunocytochemistry. […] Cell viability was analysed by trypan blue exclusion. Cytoslides with % squamous cell counts <20 % were deemed to be of acceptable quality for differential cell counting. Unfixed cytoslides were wrapped in aluminium foil and stored frozen at −80 °C for immunocytochemistry. Sputum neutrophil percentage was the primary endpoint for all three studies. The neutrophil percentage was modelled using a mixed effects analysis of covariance (ANCOVA) model appropriate for a two-period, two-treatment or three-period, three-treatment crossover design. The fixed effects in the model were treatment and period. Subjects were modelled as a random effect. Additionally, the period-specific baseline was modelled as a covariate. This model was used for all sputum inflammatory markers, including the immunohistocytochemistry, where cell counts were log transformed before analyzing the data and percent differentials were not transformed. […] Ninety percent confidence intervals of the difference (non-transformed data) or the ratio (log-transformed data) were constructed based on the ANCOVA model.
# [7] = Safety: treatment emergent adverse events; format: in vivo, human
# Description: Safety was assessed in these studies by physical examinations, haematology and biochemistry measurements, ECG analysis and reporting of any adverse events.
# Summary of Number ofSubjects Experiencing Treatment EmergentAdverse Events by MedDRA System Organ Class
# [8] = study 2, PH-797804 30 mg oral or PF-03715455 20 mg inhaled
# [9] = study 1, PH-797804 30 mg oral, post LPS, ANCOVA model mean
# [10] = study 2, PH-797804 30 mg oral or PF-03715455 20 mg inhaled, post LPS, ANCOVA model mean
# [11] = study 2, PF-03715455 20mg (n=27), PH-797804 30mg (n=23)
structure (smiles),measurement,setting,value
CNC(=O)c1ccc(C)c(-n2c(C)cc(OCc3ccc(F)cc3F)c(Br)c2=O)c1 [PH-797804],mean percentage of macrophages expressing phospho-p38,[1],38.00%
same,time of maximum systemic concentration (tmax),[2],approximately 24 h
same,mean percentage of macrophages expressing phospho-HSP27,[3],42.27%
same,concentration at 23 h,[4]; study 1,38.9 ng/mL
same,concentration at 30.5 h,[4]; study 1,37.8 ng/mL
same,concentration at 23 h,[4]; study 2,56.8 ng/mL
same,concentration at 30.5 h,[4]; study 2,49.2 ng/mL
same,"Sputum IL-6, mean","[5]; study 1, PH-797804 30 mg oral",29.66 pg/mL
same,"Sputum MCP-1, mean","[5]; study 1, PH-797804 30 mg oral",155.07 pg/mL
same,"Sputum MIP-1β, mean","[5]; study 1, PH-797804 30 mg oral",330.54 pg/mL
same,"Sputum MPO, mean","[5]; study 1, PH-797804 30 mg oral",669.06 ng/mL
same,sputum supernatant cytokine levels compared to placebo,"[5]; study 1, PH-797804 30 mg oral, trends towards significance for MCP-1 and MPO",did not significantly inhibit
same,"sputum supernatant IL-6, MPO, MCP-1 and MIP-1β levels compared to placebo",[5]; [8],significantly reduced
same,"Sputum IL-6, mean",[5]; [8],69.02 pg/mL
same,"Sputum MCP-1, mean",[5]; [8],133.41 pg/mL
same,"Sputum MIP-1β, mean",[5]; [8],609.10 pg/mL
same,"Sputum MPO, mean",[5]; [8],485.28 ng/mL
same,attenuation of the modelled LPS response (sputum neutrophil percentage),"[6]; PH-797804: studies 1 and 2, PF-03715455: study 2",approximately 50%
same,Mean (SD) sputum neutrophil percentage,"[6]; study 1, PH-797804 30 mg oral single dose",56.4 (24.0) %
same,reduction in mean sputum neutrophil percentage post-LPS compared to placebo,"[6]; study 1, PH-797804 30 mg oral single dose, p = 0.0096",15.1%
same,Total Macrophage Count in sputum,[6]; [9],470000 g⁻¹
same,Total Neutrophil Count in sputum,[6]; [9],660000 g⁻¹
same,reduction in mean sputum neutrophil percentage post-LPS compared to placebo,"[6]; study 2, PH-797804 30 mg oral (p = 0.0001) or PF-03715455 20 mg inhaled (p = 0.031), single dose",15.3%
same,Mean (SD) sputum neutrophil percentage,"[6]; study 2, PH-797804 30 mg oral or PF-03715455 20 mg inhaled, single dose",60.4 (17.9) %
same,Macrophage Differential in sputum,[6]; [10],36.39%
same,Total Cell Count in sputum,[6]; [10],2.02e+06 g⁻¹
same,Total Macrophage Count in sputum,[6]; [10],620000 g⁻¹
same,Total Neutrophil Count in sputum,[6]; [10],1.17e+06 g⁻¹
same,safety and tolerability,"[7]; single doses, healthy subjects, studies 1 and 2",safe and generally well tolerated
same,Number of subjects with treatment emergent AE: Eye Disorders,"[7]; study 1, PH-797804 30mg (n=17)",1
same,Number of subjects with treatment emergent AE: Gastrointestinal Disorders,"[7]; study 1, PH-797804 30mg (n=17)",0
same,Number of subjects with treatment emergent AE: General Disorders and Administration Site Conditions,"[7]; study 1, PH-797804 30mg (n=17)",1
same,Number of subjects with treatment emergent AE: Infections and infestations,"[7]; study 1, PH-797804 30mg (n=17)",1
same,"Number of subjects with treatment emergent AE: Injury, Poisoning and Procedural Complications","[7]; study 1, PH-797804 30mg (n=17)",1
same,Number of subjects with treatment emergent AE: Investigation (raised blood potassium),"[7]; study 1, PH-797804 30mg (n=17)",0
same,Number of subjects with treatment emergent AE: Musculoskeletal and Connective tissue disorders,"[7]; study 1, PH-797804 30mg (n=17)",1
same,Number of subjects with treatment emergent AE: Nervous system disorders,"[7]; study 1, PH-797804 30mg (n=17)",2
same,"Number of subjects with treatment emergent AE: Respiratory, thoracic and mediastinal disorders","[7]; study 1, PH-797804 30mg (n=17)",0
same,Number of subjects with treatment emergent AE: Skin and subcutaneous tissue disorders,"[7]; study 1, PH-797804 30mg (n=17)",0
same,Number of subjects with treatment emergent AE: Psychiatric disorders,"[7]; study 1, PH-797804 30mg (n=17), event was insomnia lasting 1 hr",1
same,Number of subjects with treatment emergent AE: Eye Disorders,[7]; [11],1
same,Number of subjects with treatment emergent AE: Gastrointestinal Disorders,[7]; [11],0
same,Number of subjects with treatment emergent AE: General Disorders and Administration Site Conditions,[7]; [11],3
same,Number of subjects with treatment emergent AE: Immune system disorders,[7]; [11],0
same,Number of subjects with treatment emergent AE: Infections and infestations,[7]; [11],2
same,"Number of subjects with treatment emergent AE: Injury, Poisoning and Procedural Complications",[7]; [11],1
same,Number of subjects with treatment emergent AE: Musculoskeletal and Connective tissue disorders,[7]; [11],0
same,Number of subjects with treatment emergent AE: Nervous system disorders,[7]; [11],8
same,"Number of subjects with treatment emergent AE: Respiratory, thoracic and mediastinal disorders",[7]; [11],3
same,Number of subjects with treatment emergent AE: Skin and subcutaneous tissue disorders,[7]; [11],0
same,Number of subjects with treatment emergent AE: Vascular disorders,[7]; [11],0
same,Number of subjects with treatment emergent AE: Psychiatric disorders,"[7]; study 2, PF-03715455 20mg (n=27), PH-797804 30mg (n=23), hangover (PF-03715455), loss of libido and insomnia (PH-797804)",2

# Source: PMC4564450, “Oral and inhaled p38 MAPK inhibitors: effects on inhaled LPS challenge in healthy subjects” (European Journal of Clinical Pharmacology, 2015)
